In patent US20230017045A1, “PYRIDINE AND PYRIMIDINE CARBOXYLATE HERBICIDES AND METHODS OF USE THEREOF” (Dow AgroSciences LLC, priority 2017, published 2023):
Like-named read-outs stand apart in the source and are kept apart here.

System: test plant species
Assay: Post-emergent herbicidal activity test (greenhouse, foliar spray, visual growth reduction)
Format: in vivo
Conditions: post-emergence, 336 h, 140 g ai/ha
Protocol: Post-emergent Test: Seeds or nutlets of the desired test plant species were planted in Sun Gro Metro-Mix® 360 planting mixture, which typically has a pH of 6.0 to 6.8 and an organic matter content of about 30 percent, in plastic pots with a surface area of 64 square centimeters. In some aspects, to ensure good germination and healthy plants, a fungicide treatment and/or other chemical or physical treatment was applied. The plants were grown for 7-21 d in a greenhouse with an approximate 15 h photoperiod which was maintained at 23-29° C. during the day and 22-28° C. during the night. Nutrients and water were added on a regular basis and supplemental lighting was provided with overhead metal halide 1000-Watt lamps as necessary. Plants were used for testing when they reached the first or second true leaf stage. A weighed amount, determined by the highest rate to be tested, of each test compound was placed in a 25 mL glass vial and was dissolved in 4 mL of a 97:3 v/v mixture of acetone and DMSO to obtain concentrated stock solutions. […] The concentrated stock solutions obtained were diluted with 20 mL of an aqueous mixture containing acetone, water, isopropyl alcohol, DMSO, […] crop oil concentrate, and X-77 surfactant in a 48.5:39:10:1.5:1.0:0.02 v/v ratio to obtain spray solutions containing the application rate. Compound requirements are based upon a 12 mL application volume at a rate of 187 liters per hectare (L/ha). Formulated compounds were applied to the plant material with an overhead Mandel track sprayer equipped with […] nozzles calibrated to deliver 187 L/ha over an application area of 0.64 square meters at a spray height of 18 inches (43 cm) above the average plant canopy height. Control plants were sprayed in the same manner with the solvent blank. The treated plants and control plants were placed in a greenhouse as described above and watered by subirrigation to prevent wash-off of the test compounds. After 14 d, the condition of the test plants as compared with that of the nontreated and control plants was determined visually and scored on a scale of 0 to 100 percent where 0 corresponds to no injury and 100 corresponds to complete control. In the reporting of the results, Table A: Percent Growth Reduction Conversion Table was used.

[1] = ALOMY: blackgrass (Alopecurus myosuroides), 14 days after application, read-out: Visual Growth Reduction (%) 14 Days After Application, ALOMY
[2] = AMARE: redroot pigweed (Amaranthus retroflexus), 14 days after application, read-out: Visual Growth Reduction (%) 14 Days After Application, AMARE
[3] = AVEFA: wild oat (Avena fatua), 14 days after application, read-out: Visual Growth Reduction (%) 14 Days After Application, AVEFA
[4] = CHEAL: lambsquarters (Chenopodium album), 14 days after application, read-out: Visual Growth Reduction (%) 14 Days After Application, CHEAL
[5] = CIRAR: canada thistle (Cirsium arvense), 14 days after application, read-out: Visual Growth Reduction (%) 14 Days After Application, CIRAR
[6] = CYPES: yellow nutsedge (Cyperus esculentus), 14 days after application, read-out: Visual Growth Reduction (%) 14 Days After Application, CYPES
[7] = DIGSA: crabgrass (Digitaria sanguinalis), 14 days after application, read-out: Visual Growth Reduction (%) 14 Days After Application, DIGSA
[8] = ECHCG: barnyardgrass (Echinochloa crus-galli), 14 days after application, read-out: Visual Growth Reduction (%) 14 Days After Application, ECHCG
[9] = IPOHE: ivy-leaf morning glory (Ipomoea hederacea), 14 days after application, read-out: Visual Growth Reduction (%) 14 Days After Application, IPOHE
[10] = KCHSC: kochia (Bassia scoparia), 14 days after application, read-out: Visual Growth Reduction (%) 14 Days After Application, KCHSC
[11] = ORYSA: rice (Oryza sativa), 14 days after application, read-out: Visual Growth Reduction (%) 14 Days After Application, ORYSA
[12] = SETFA: giant foxtail (Setaria faberi), 14 days after application, read-out: Visual Growth Reduction (%) 14 Days After Application, SETFA
[13] = SORVU: grain sorghum (Sorghum vulgare), 14 days after application, read-out: Visual Growth Reduction (%) 14 Days After Application, SORVU
[14] = STEME: common chickweed (Stellaria media), 14 days after application, read-out: Visual Growth Reduction (%) 14 Days After Application, STEME
[15] = TRZAS: wheat, spring (Triticum aestivum), 14 days after application, read-out: Visual Growth Reduction (%) 14 Days After Application, TRZAS

| SMILES | pest or weed control at 140 g/ha [1] [%] | pest or weed control at 140 g/ha [2] [%] | pest or weed control at 140 g/ha [3] [%] | pest or weed control at 140 g/ha [4] [%] | pest or weed control at 140 g/ha [5] [%] | pest or weed control at 140 g/ha [6] [%] | pest or weed control at 140 g/ha [7] [%] | pest or weed control at 140 g/ha [8] [%] | pest or weed control at 140 g/ha [9] [%] | pest or weed control at 140 g/ha [10] [%] | pest or weed control at 140 g/ha [11] [%] | pest or weed control at 140 g/ha [12] [%] | pest or weed control at 140 g/ha [13] [%] | pest or weed control at 140 g/ha [14] [%] | pest or weed control at 140 g/ha [15] [%] | also measured |
| --- | --- | --- | --- | --- | --- | --- | --- | --- | --- | --- | --- | --- | --- | --- | --- | --- |
| COC(=O)c1nc(-c2ccc(C(F)(F)F)cc2F)c(Cl)cc1Cl [F102, Methyl 3,5-dichloro-6-(2-fluoro-4-(trifluoromethyl)phenyl)picolinate] | 0 to 29 | 45 to 59 | 0 to 29 | 60 to 74 | 0 to 29 | 0 to 29 | 0 to 29 | 0 to 29 | 60 to 74 | 0 to 29 | 0 to 29 | 0 to 29 | 60 to 74 | 0 to 29 | 0 to 29 | – |
| COCC(F)(F)c1ccc(-c2ccc(Cl)c(C(=O)OC)n2)c(Cl)c1 [F177, methyl 3-chloro-6-(2-chloro-4-(1,1-difluoro-2-methoxyethyl)phenyl)picolinate] | 0 to 29 | 0 to 29 | 0 to 29 | 60 to 74 | 45 to 59 | 0 to 29 | 0 to 29 | 0 to 29 | 60 to 74 | 45 to 59 | 0 to 29 | 0 to 29 | 30 to 44 | 0 to 29 | 0 to 29 | – |
| COC(=O)c1nc(-c2ccc(C(C)F)cc2Cl)ccc1Cl (stereo not drawn) [F14, methyl 3-chloro-6-(2-chloro-4-(1-fluoroethyl)phenyl)-picolinate] | 0 to 29 | 0 to 29 | 0 to 29 | 85 to 94 | 0 to 29 | 0 to 29 | 0 to 29 | – | – | – | – | – | – | – | – | pest or weed control at 140 g/ha (barnyardgrass (Echinochloa crus-galli), 14 Days After Application, read-out: Visual Growth Reduction (%) ECHCG): 0 to 29%; pest or weed control at 140 g/ha (common chickweed (Stellaria media), 14 Days After Application, read-out: Visual Growth Reduction (%) STEME): 0 to 29%; pest or weed control at 140 g/ha (giant foxtail (Setaria faberi), 14 Days After Application, read-out: Visual Growth Reduction (%) SETFA): 0 to 29%; pest or weed control at 140 g/ha (ivy-leaf morning glory (Ipomoea hederacea), 14 Days After Application, read-out: Visual Growth Reduction (%) IPOHE): 45 to 59%; pest or weed control at 140 g/ha (johnsongrass (Sorghum vulgare), 14 Days After Application, read-out: Visual Growth Reduction (%) SORVU): 0 to 29%; pest or weed control at 140 g/ha (kochia (Bassia scoparia), 14 Days After Application, read-out: Visual Growth Reduction (%) KCHSC): 85 to 94%; pest or weed control at 140 g/ha (rice (Oryza sativa), 14 Days After Application, read-out: Visual Growth Reduction (%) ORYSA): 0 to 29%; pest or weed control at 140 g/ha (wheat, spring (Triticum aestivum), 14 Days After Application, read-out: Visual Growth Reduction (%) TRZAS): 0 to 29% |
| COC(=O)c1nc(-c2ccc(SC(F)(F)F)cc2Cl)ccc1Cl [F90, Methyl 3-chloro-6-(2-chloro-4-((trifluoromethyl)thio)phenyl) picolinate] | 0 to 29 | 75 to 84 | 0 to 29 | 75 to 84 | 85 to 94 | 0 to 29 | 60 to 74 | 0 to 29 | 75 to 84 | 30 to 44 | 0 to 29 | 45 to 59 | 60 to 74 | 0 to 29 | 0 to 29 | – |
